Test results taken from paper PMC3629139, “A Powerful Molecular Engineering Tool Provided Efficient Chlamydomonas Mutants as Bio-Sensing Elements for Herbicides Detection” (PLoS ONE, 2013).

What was measured:
Assay in all cases: chlorophyll a fluorescence induction (OJIP), inhibition of 1-VJ (QA to QB electron transfer) in living algal cells
Format in all cases: cell-based
Settings in all cases: read-out: Atrazine / I50×10^-7 M / (±SE)
[1] = target: T1, photosystem II (PSII) D1 protein (Chlamydomonas reinhardtii, UniProt P07753)
T1 construct: gene psbA; full-length D1 from intronless psbA in the chloroplast, assembled in native PSII (with D2 and other subunits) in living algal cells; D1 mutants by ep-PCR of Ala153-Ala294 region and biolistic transformation of Del1
Text: (§1) chlorophyll a fluorescence induction (OJIP), inhibition of 1-VJ (QA to QB electron transfer) in living algal cells on photosystem II (PSII) D1 protein

[2] = target: T2, photosystem II (PSII) D1 protein (Chlamydomonas reinhardtii, UniProt P07753, F211S/P162S)
T2 construct: gene psbA; full-length D1 from intronless psbA in the chloroplast, assembled in native PSII (with D2 and other subunits) in living algal cells; D1 mutants by ep-PCR of Ala153-Ala294 region and biolistic transformation of Del1
Text: as §1

[3] = target: T3, photosystem II (PSII) D1 protein (Chlamydomonas reinhardtii, UniProt P07753, G207S)
T3 construct: gene psbA; full-length D1 from intronless psbA in the chloroplast, assembled in native PSII (with D2 and other subunits) in living algal cells; D1 mutants by ep-PCR of Ala153-Ala294 region and biolistic transformation of Del1
Text: as §1

[4] = target: T4, photosystem II (PSII) D1 protein (Chlamydomonas reinhardtii, UniProt P07753, I281T)
T4 construct: gene psbA; full-length D1 from intronless psbA in the chloroplast, assembled in native PSII (with D2 and other subunits) in living algal cells; D1 mutants by ep-PCR of Ala153-Ala294 region and biolistic transformation of Del1
Text: as §1

[5] = target: T5, photosystem II (PSII) D1 protein (Chlamydomonas reinhardtii, UniProt P07753, L200I)
T5 construct: gene psbA; full-length D1 from intronless psbA in the chloroplast, assembled in native PSII (with D2 and other subunits) in living algal cells; D1 mutants by ep-PCR of Ala153-Ala294 region and biolistic transformation of Del1
Text: as §1

[6] = target: T6, photosystem II (PSII) D1 protein (Chlamydomonas reinhardtii, UniProt P07753, M172L)
T6 construct: gene psbA; full-length D1 from intronless psbA in the chloroplast, assembled in native PSII (with D2 and other subunits) in living algal cells; D1 mutants by ep-PCR of Ala153-Ala294 region and biolistic transformation of Del1
Text: as §1

Compound `CCNc1nc(Cl)nc(NC(C)C)n1` [Atrazine, 2-chloro-4-(ethylamine)-6-(isopropylamine)-s-triazine] has an IC50 [1] of 240 nM, an IC50 [2] of 1970 nM and an IC50 [3] of 210 nM. The IC50 [4] was 200 nM, the IC50 [5] was 180 nM and the IC50 [6] was 220 nM.
